Assay results as given in patent publication US11840560B2, “Prodrugs and uses thereof” (Novo Nordisk A/S, priority 2022, dated 2023).
*1 amine or outer side, *2 acyl side, *3 side chain or, on linkers, in order; H or OH if unused. Where a SMILES comes first, the peptide text is derived from it. Side-chain parts run from the residue outwards. [ ]: non-standard residue; d: D form. The star is where a group is joined. X1 = O=C(O)CCCCCCCCCCCCCCC(=O)N[C@@H](CCC(=O)NCCCC[C@H](NC(=O)CC[C@H](NC(=O)CCCCCCCCCCCCCCC(=O)O)C(=O)O)C(=O)*)C(=O)O; N(2-Aminoethyl)Gly = O=C(CN(CCN[*:3])[*:1])[*:2]; C18 diacid = O=C(O)CCCCCCCCCCCCCCCCC(=O)*; C16 diacid = O=C(O)CCCCCCCCCCCCCCC(=O)*; γGlu = O=C(O)[C@H](CCC(=O)[*:2])N[*:1]; εLys = N[C@@H](CCCCN[*:1])C(=O)[*:2]; AEEA = NCCOCCOCC(=O)O; Aib = CC(C)(N)C(=O)O; Sar = CNCC(=O)O

Columns and labels:
physchem = assay type: physicochemical; conditions: buffer, pH 7.4
Protocol: The assay was performed to investigate the conversion half-life of prodrug to drug of the prodrugs of the invention. The conversion half-life was investigated in vitro at pH 7.4 upon incubation at 37° C.
Test compounds were dissolved to a concentration of 100 μM in phosphate-buffered saline (140 mM NaCl, 2.07 mM KCl, 8.05 mM Na2HPO4, 1.96 mM KH2PO4, pH 7.4). Solution pH was measured after dissolution and adjusted to pH 7.4 with aqueous NaOH if necessary. The solution was filtered through a 0.22 μm syringe filter, then incubated in a water bath at 37° C. Aliquots were withdrawn at defined timepoints, e.g. every 24-72 hours, for LCMS analysis.
LCMS analysis was performed using the procedure defined in LCMS_A above. The AUC of the prodrug, active drug, and DKP were determined using UV detection at 214 nm, and the ratio of prodrug AUC over total AUC of prodrug plus active drug plus DKP was calculated. The negative natural logarithm of this ratio was plotted over time, and a linear regression of this relationship was then performed.
The prodrug to drug conversion half-life of the compounds of the invention was measured as described in General Methods for Measuring Conversion Half-life.

in vivo [1] = assay: in vivo; set-up: species or system beagle dogs; conditions: dog, po, 300 mg; for Tmax / half-life: male, beagle
Protocol: The purpose of this method is to determine the terminal half-life and plasma exposure in vivo of the compounds of the present invention after p.o. administration to beagle dogs, i.e. the terminal half-life and concentration of test substance that reaches circulation with time. This is done in a pharmacokinetic (PK) study, where these parameters of the compound in question are determined. By terminal half-life is generally meant the period of time it takes to halve a certain plasma concentration, measured after the initial distribution phase.
Tablet compositions comprising the test compounds obtained from Example 1 and SNAC (sodium N-(8-(2-hydroxybenzoyl)amino)caprylate) were prepared according to methods known to the person skilled in the art by mixing test substance with roller compacted SNAC and magnesium stearate as e.g. described in WO 2019/149880. Each tablet was comprised of 7.7 mg magnesium stearate, 2-4 mg of each compound tested, and 300 mg SNAC.
Male beagle dogs, 1-7 years of age and weighing 9-17 kg during the study period, were included in the study. The dogs were dosed in a fasting state. The dogs were group housed in pens (12 hours light: 12 hours dark), and fed individually and restrictedly once daily with Royal Canin Medium Adult dog food (Royal Canin Products, China Branch, or Brogaarden A/S, Denmark). The dogs were used for repeated PK studies with a suitable wash-out period between successive dosing. An appropriate acclimatisation period was given prior to initiation of the first PK study. All handling, dosing, and blood sampling of the animals were performed by trained and skilled staff. Before the studies, the dogs were fasted overnight and from 0 to 4 hours after dosing. The dogs were restricted to water 1 hour before dosing until 4 hours after dosing, but otherwise had adlibitum access to water during the whole period.
The compositions were administered by a single oral dosing to the dogs in groups of 6-8 dogs. The tablets were administered in the following manner: 10 min prior to tablet administration, the dogs may be dosed subcutaneously with approximately 3 nmol/kg of SEQ ID NO.: 7 ([…]), then tablets were placed in the back of the mouth of the dog to prevent chewing. The mouth was then closed, and 10 mL of tap water was given by syringe or gavage to facilitate swallowing of the tablet.
One blood sample was drawn before dosing, and additional samples were drawn at predefined time points after dosing, such as for up to 600 hours, to adequately cover the full plasma concentration-time absorption profile of the test substance. For each blood sample time point, approximately 0.8 mL of whole blood was collected in a 1.5 mL EDTA-coated tube, which was gently turned to mix the sample with EDTA. Blood samples were collected in EDTA buffer (8 mM) and then centrifuged at 4° C. and 2000 g for 10 minutes. Plasma was pipetted into Micronic tubes on dry ice, and kept at −20° C. or lower until analysis. Blood samples were taken as appropriate, for example from a venflon in the cephalic vein in the front leg for the first 2 hours and then with syringe from the jugular vein for the rest of the time points. The first few drops were allowed to drain from the venflon to avoid heparin saline from the venflon in the sample. All blood samples were collected into test tubes containing EDTA for stabilisation and kept on ice until centrifugation. Plasma was separated from whole blood by centrifugation and the plasma was stored at −20° C. or lower until analysis.
The plasma was analysed for test substance using LC-MS (Liquid Chromatography-Mass Spectrometry) as known to the person skilled in the art. […]

in vivo [2] = assay: in vivo; set-up: species or system Göttingen minipigs; conditions: female, Göttingen, minipig, iv
Protocol: The purpose of this method is to determine the half-life in vivo of the derivatives of the present invention after i.v. administration to minipigs, i.e. the prolongation of their time in the body and thereby their time of action. This is done in a pharmacokinetic (PK) study, where the terminal half-life of the derivative in question is determined. By terminal half-life is generally meant the period of time it takes to halve a certain plasma concentration, measured after the initial distribution phase.
Female Göttingen minipigs were obtained from Ellegaard Göttingen Minipigs (Dalmose, Denmark) approximately 7-14 months of age and weighing from approximately 16-35 kg were used in the studies. The minipigs were housed individually and fed restrictedly once daily with SDS minipig diet (Special Diets Services, Essex, UK).
After at 3 weeks of acclimatisation two permanent central venous catheters were implanted in vena cava caudalis in each animal. The animals were allowed 1 week recovery after the surgery, and were then used for repeated pharmacokinetic studies with a suitable wash-out period between successive derivative dosing.
The animals were fasted for approximately 18 hours before dosing and from 0 to 4 hours after dosing but had ad libitum access to water during the whole period.
The sodium salts of compounds of Examples 1 were prepared using method SX_A under General Methods for preparation of the compounds of the invention. The resulting sodium salts were dissolved to a concentration of 50-300 nmol/mL in a buffer containing 0.007% polysorbate 20, 50 mM sodium phosphate, 70 mM sodium chloride, pH 7.4. Intravenous injections (the volume corresponding to usually 1-20 nmol/kg, for example 0.02-0.05 mL/kg) of the compounds were given through one catheter, and blood was sampled at predefined time points for up to 21 days post dosing (preferably through the other catheter). Blood samples (for example 0.8 mL) were collected in 8 mM EDTA buffer and then centrifuged at 4° C. and 1942 g for 10 minutes.
Plasma was pipetted into Micronic tubes on dry ice and kept at −20° C. until analysed for plasma concentration of the compounds using ELISA, or a similar antibody-based assay, or LCMS. Individual plasma concentration-time profiles were analysed by a non-compartmental model in Phoenix WinNonLin ver. 6.4. (Pharsight Inc., Mountain View, CA, USA), and the resulting terminal half-lives (harmonic mean) determined.
The terminal half-lives and/or the observed terminal half-lives, measured as described herein in General Methods for Measuring Terminal Half-Life in Minipigs are shown in Table 7. […] This provides evidence that conversion of prodrug to parent compound is occurring in vivo. The terminal half-life of the prodrug may be faster or slower than the corresponding parent compound due to the contribution of conversion on the terminal half-life of the prodrug.

Row | Compound | half-life at 100 μM (physchem) [h] | AUC/Dose (in vivo [1]) [kg·h/L] | Cmax/Dose (in vivo [1]) [kg/L] | Tmax (in vivo [1]) [h] | half-life (in vivo [1]) [h] | half-life (in vivo [2]) [h]
1 | CC[C@H](C)[C@H](NC(=O)[C@H](CC(C)C)NC(=O)[C@H](Cc1c[nH]c2ccccc12)NC(=O)[C@H](CCC(N)=O)NC(=O)[C@@H](NC(=O)[C@H](Cc1ccccc1)NC(=O)[C@H](C)NC(=O)[C@H](CCCCNC(=O)COCCOCCNC(=O)COCCOCCNC(=O)CC[C@H](NC(=O)CCCCCCCCCCCCCCCCCCC(=O)O)C(=O)O)NC(=O)[C@H](CCC(N)=O)NC(=O)[C@H](C)NC(=O)[C@@H](NC(=O)[C@H](CCCCN)NC(=O)[C@H](CC(=O)O)NC(=O)[C@H](CC(C)C)NC(=O)C(C)(C)NC(=O)[C@@H](NC(=O)[C@H](CO)NC(=O)[C@H](Cc1ccc(O)cc1)NC(=O)[C@H](CC(=O)O)NC(=O)[C@H](CO)NC(=O)[C@@H](NC(=O)[C@H](Cc1ccccc1)NC(=O)[C@@H](NC(=O)CNC(=O)[C@H](CCC(=O)O)NC(=O)C(C)(C)NC(=O)[C@H](Cc1ccc(O)cc1)NC(=O)CN(C)C(=O)[C@@H](N)CCCCNC(=O)CC[C@H](NC(=O)CCCCCCCCCCCCCCC(=O)O)C(=O)O)[C@@H](C)O)[C@@H](C)O)[C@@H](C)CC)[C@@H](C)CC)C(C)C)C(=O)N[C@@H](C)C(=O)NCC(=O)NCC(=O)N1CCC[C@H]1C(=O)N[C@@H](CO)C(=O)N[C@@H](CO)C(=O)NCC(=O)N[C@@H](C)C(=O)N1CCC[C@H]1C(=O)N1CCC[C@H]1C(=O)N1CCC[C@H]1C(=O)N[C@@H](CO)C(N)=O [Compound 18] | 101 | 13.3 | 0.15 | 4 | 88 | 
2 | CC[C@H](C)[C@H](NC(=O)[C@H](Cc1ccccc1)NC(=O)[C@H](CCC(=O)O)NC(=O)[C@H](CCCNC(=N)N)NC(=O)[C@H](C)NC(=O)[C@H](C)NC(=O)[C@H](CCC(N)=O)NC(=O)[C@H](CCC(=O)O)NC(=O)[C@H](CCC(=O)O)NC(=O)[C@H](CC(C)C)NC(=O)[C@H](CC(C)C)NC(=O)[C@@H](NC(=O)[C@H](CO)NC(=O)[C@H](Cc1ccc(O)cc1)NC(=O)[C@H](CC(=O)O)NC(=O)[C@H](CO)NC(=O)[C@@H](NC(=O)[C@H](Cc1ccccc1)NC(=O)[C@@H](NC(=O)CNC(=O)[C@H](CCC(=O)O)NC(=O)C(C)(C)NC(=O)[C@@H](N)Cc1ccc(O)cc1)[C@@H](C)O)[C@@H](C)O)[C@@H](C)CC)C(=O)N[C@@H](CCC(=O)O)C(=O)N[C@@H](Cc1c[nH]c2ccccc12)C(=O)N[C@@H](CC(C)C)C(=O)N[C@@H](CC(C)C)C(=O)N[C@@H](C)C(=O)NCC(=O)NCC(=O)N1CCC[C@H]1C(=O)N[C@@H](CO)C(=O)N[C@@H](CCCCNC(=O)[C@@H](N)CCCCNC(=O)[C@@H](N)CCCCNC(=O)CC[C@H](NC(=O)CCCCCCCCCCCCCCC(=O)O)C(=O)O)C(=O)NCC(=O)N[C@@H](C)C(=O)N1CCC[C@H]1C(=O)N1CCC[C@H]1C(=O)N1CCC[C@H]1C(=O)N[C@@H](CO)C(=O)O [Parent compound 2] (H-Y[Aib]EGTFTSDYSILLEEQAAREFIEWLLAGGPSK([εLys-εLys-γGlu-C16 diacid])GAPPPS-OH) |  |  |  |  |  | 104
3 | H-G[N(2-Aminoethyl)Gly]([γGlu-C16 diacid])Y[Aib]EGTFTSDYSILLEEQAAREFIEWLLAGGPSK([AEEA-AEEA-γGlu-C16 diacid])GAPPPS-OH [Compound 2] | 363 | 22.9 | 0.18 | 4 | 142 | 
4 | H-K(X1)[Sar]Y[Aib]EGTFTSDYSILLEEQAAREFIEWLLAGGPSK([εLys-εLys-γGlu-C16 diacid])GAPPPS-OH [Compound 14] | 166 | 43.6 | 0.38 | 5.5 | 119 | 
5 | H-K([γGlu-C16 diacid])[Sar]Y[Aib]EGTFTSDYSILLEEQAAREFIEWLLAGGPSK([εLys-εLys-γGlu-C16 diacid])GAPPPS-OH [Compound 12] | 129 | 50.8 | 0.46 | 1.3 | 143 | 
6 | H-K([γGlu-C16 diacid])[Sar]Y[Aib]EGTFTSDYSILLEK([εLys-εLys-γGlu-C18 diacid])QAAREFIEWLLAGGPSSGAPPPS-OH [Compound 16] | 117 | 67.6 | 0.73 | 4 | 96 | 
7 | H-K([γGlu-C18 diacid])[Sar]Y[Aib]EGTFTSDYSILLEEQAAREFIEWLLAGGPSK([εLys-εLys-γGlu-C16 diacid])GAPPPS-OH [Compound 13] | 137 | 41.3 | 0.36 | 4.3 | 121 | 
8 | H-K([γGlu-C18 diacid])[Sar]Y[Aib]EGTFTSDYSILLEEQAAREFIEWLLAGGPSK([εLys-εLys-γGlu-C18 diacid])GAPPPS-OH [Compound 15] | 127 | 21.7 | 0.20 | 1.5 | 124 | 
9 | H-L[N(2-Aminoethyl)Gly]([γGlu-C16 diacid])Y[Aib]EGTFTSDYSILLEEQAAREFIEWLLAGGPSK([AEEA-AEEA-γGlu-C16 diacid])GAPPPS-OH [Compound 5] | 74 | 23.4 | 0.25 | 7 | 106 | 
